# According to patent US20090247533A1, “Ecteinascidins” (The Board of Trustees of the University of Illinois, priority 1994, published 2009):
# How the values were obtained:
# RNA polymerase = experiment: Enzyme inhibition: RNA polymerase inhibition; type: biochemical
# DNA synthesis = experiment: Antimetabolism: DNA synthesis inhibition; type: cell-based
# [1] = system: P388 = murine lymphoma cells; experiment: Cytotoxicity against P388 cells; type: cell-based
# MEL28 = human melanoma = experiment: Cytotoxicity against MEL28 cells; type: cell-based
# [2] = system: HT29 = human colon carcinoma; experiment: Cytotoxicity against HT29 cells; type: cell-based
# [3] = system: CV-1 = monkey kidney cells; experiment: Cytotoxicity against CV-1 cells; type: cell-based
# Bacillus subtilis = experiment: Antimicrobial activity against Bacillus subtilis (MIC, disc); type: cell-based; conditions: for B.s. MIC: Bacillus subtilis
# [4] = system: A549 = human lung carcinoma; experiment: Cytotoxicity against A549 cells; type: cell-based
# protein synthesis = experiment: Antimetabolism: protein synthesis inhibition; type: cell-based
# RNA synthesis = experiment: Antimetabolism: RNA synthesis inhibition; type: cell-based
# Stability in solution = type: physicochemical; conditions: giving reddish color
# [5] = system: P388 murine leukemia, B16 melanoma, Lewis lung carcinoma, and several human tumor xenograft models in mice; conditions: human tumor xenografts in mice; cited from earlier work
# DNA polymerase = experiment: Enzyme inhibition: DNA polymerase inhibition; type: biochemical
# B16 melanoma = conditions: evaluated by the NCI; cited from earlier work
# [6] = system: L1210 = murine lymphoma cells; experiment: Cytotoxicity against L1210 cells; type: cell-based
Compound,RNAp (RNA polymerase inhibition) IC50 (RNA polymerase),DNA (DNA synthesis inhibition) IC50 (DNA synthesis),B.s. MIC (Bacillus subtilis),P388 IC50 [1],MEL28 IC50 (MEL28 = human melanoma),HT29 IC50 [2],CV-1 IC50 [3],A549 IC50 [4],Prot. (protein synthesis inhibition) IC50 (protein synthesis),RNA (RNA synthesis inhibition) IC50 (RNA synthesis),other results
"COc1cc2c(cc1OC(C)=O)CCN[C@]21CS[C@@H]2c3c(OC(C)=O)c(C)c4c(c3[C@H](COC1=O)N1[C@@H]2[C@H]2c3c(O)c(OC)c(C)c(Br)c3C[C@@H]([C@@H]1O)N2C)OCO4 [6′-Ac, 15-Br]",0.42 µg/mL,0.5 µg/mL,,,,,,,,,
"COc1c(C)cc2c(c1O)C1NC(C2)C(O)N2C3COC(=O)C(N)CSC(c4c(OC(C)=O)c(C)c(OC)c(O)c43)C12 (stereo not shown) [Et 583, Ecteinascidin 583]",0.5 µg/mL,,0.74 μg/disc,,,,,,,,IC50 ([1]; Mus musculus): 0.01 µg/mL; IC50 (MEL28 = human melanoma; SK-MEL-28): 0.005 µg/mL; IC50 ([2]; HT-29): 0.01 µg/mL; IC50 ([3]; Primates): 0.025 µg/mL; IC50 [4]: 0.01 µg/mL; IC50 (DNA synthesis): 1 µg/mL; IC50 (protein synthesis; read-out: Prot. (protein synthesis inhibition) IC50): 1 µg/mL; IC50 (RNA synthesis): 0.4 µg/mL
"COc1c(C)cc2c(c1O)C1C3[C@@H]4SCC(=O)C(=O)OC[C@@H](c5c6c(c(C)c(OC(C)=O)c54)OCO6)N3[C@@H](O)[C@H](C2)N1C (stereo partly shown) [Et 594, Ecteinascidin 594]",1.0 µg/mL,0.5 µg/mL,0.37 μg/disc,0.01 µg/mL,0.025 µg/mL,0.025 µg/mL,0.025 µg/mL,0.02 µg/mL,0.8 µg/mL,0.5 µg/mL,
"COc1c(C)cc2c(c1O)[C@@H]1[C@@H]3[C@@H]4SC[C@H](N)C(=O)OC[C@@H](c5c(O)c(OC)c(C)c(OC(C)=O)c54)N3[C@@H](O)[C@@H](C2)N1C [Et 597, Ecteinascidin 597]",0.25 µg/mL,0.08 µg/mL,0.14 μg/disc,0.002 µg/mL,0.002 µg/mL,0.002 µg/mL,0.0025 µg/mL,0.002 µg/mL,0.7 µg/mL,0.01 µg/mL,stability in solution (Stability in solution): decomposed slowly in solution
COc1c(C)cc2c(c1O)[C@H]1N[C@@H](C2)[C@H](O)N2[C@H]1[C@@H]1SC[C@]3(NCCc4c3[nH]c3ccccc43)C(=O)OC[C@H]2c2c3c(c(C)c(OC(C)=O)c21)OCO3 [Et 722],0.5 µg/mL,0.4 µg/mL,0.70 μg/disc,0.001 µg/mL,0.002 µg/mL,0.002 µg/mL,0.005 µg/mL,0.001 µg/mL,0.9 µg/mL,0.1 µg/mL,efficacy in vivo [5]: promising efficacy in vivo; DNAp (DNA polymerase inhibition) IC50 (DNA polymerase): >1 µg/mL
COc1cc2c(cc1O)CCN[C@]21CS[C@@H]2c3c(OC(C)=O)c(C)c4c(c3[C@H](COC1=O)N1[C@@H]2[C@@H]2N[C@@H](Cc3cc(C)c(OC)c(O)c32)[C@@H]1O)OCO4 [Et 729],0.05 µg/mL,0.2 µg/mL,0.08 μg/disc,0.0002 µg/mL,0.005 µg/mL,0.0005 µg/mL,0.0025 µg/mL,0.0002 µg/mL,>1 µg/mL,0.02 µg/mL,survivors 60 days following infection with B16 melanoma (B16 melanoma): 8 of 10; L1210 IC50 [6]: <0.001 µg/mL; efficacy in vivo [5]: promising efficacy in vivo; DNAp (DNA polymerase inhibition) IC50 (DNA polymerase): 1.5 µg/mL
"COc1cc2c(cc1O)CCNC21CSC2c3c(OC(C)=O)c(C)c4c(c3C(COC1=O)N1CC3Cc5cc(C)c(OC)c(O)c5C(N3)C21)OCO4 (stereo not shown) [Et 731, Ecteinascidin 731]",,,6.20 μg/disc,0.1 µg/mL,0.2 µg/mL,0.1 µg/mL,0.2 µg/mL,0.1 µg/mL,>1 µg/mL,,
COc1c(C)cc2c(c1O)[C@@H]1[C@@H]3[C@@H]4SC[C@]5(NCCc6c5[nH]c5ccccc65)C(=O)OC[C@@H](c5c6c(c(C)c(OC(C)=O)c54)OCO6)N3[C@@H](O)[C@H](C2)N1C [Et 736],0.5 µg/mL,0.4 µg/mL,0.38 μg/disc,0.0005 µg/mL,0.0025 µg/mL,0.0025 µg/mL,0.0025 µg/mL,0.001 µg/mL,0.5 µg/mL,0.1 µg/mL,
COc1cc2c(cc1O)CCN[C@]21CS[C@@H]2c3c(OC(C)=O)c(C)c4c(c3[C@H](COC1=O)N1[C@@H]2[C@H]2c3c(cc(C)c(OC)c3O)C[C@@H]([C@@H]1O)N2C)OCO4 [Et 743],0.1 µg/mL,0.1 µg/mL,0.02 μg/disc,0.0002 µg/mL,0.005 µg/mL,0.0005 µg/mL,0.001 µg/mL,0.0002 µg/mL,>1 µg/mL,0.03 µg/mL,L1210 IC50 [6]: 0.005 µg/mL; efficacy in vivo [5]: promising efficacy in vivo; DNAp (DNA polymerase inhibition) IC50 (DNA polymerase): 2 µg/mL
"COc1cc2c(cc1O)CCNC21C[S+]([O-])C2c3c(OC(C)=O)c(C)c4c(c3C(COC1=O)N1C(O)C3Cc5cc(C)c(OC)c(O)c5C(N3)C21)OCO4 (stereo not shown) [Et 745B, Ecteinascidin 745B]",3 µg/mL,>1 µg/mL,,0.005 µg/mL,,0.01 µg/mL,0.025 µg/mL,0.01 µg/mL,,0.5 µg/mL,L1210 IC50 [6]: 0.025 µg/mL
COc1cc2c(cc1O)CCN[C@]21CS[C@@H]2c3c(OC(C)=O)c(C)c4c(c3[C@H](COC1=O)N1C[C@@H]3Cc5cc(C)c(OC)c(O)c5[C@H]([C@H]21)N3C)OCO4 [Et 745],,>1 µg/mL,6.50 μg/disc,0.01 µg/mL,0.05 µg/mL,0.025 µg/mL,0.05 µg/mL,0.02 µg/mL,,0.3 µg/mL,
COc1cc2c(cc1O)CCN[C@]21C[S+]([O-])[C@@H]2c3c(OC(C)=O)c(C)c4c(c3[C@H](COC1=O)N1[C@H]2[C@H]2c3c(cc(C)c(OC)c3O)C[C@@H]([C@H]1O)N2C)OCO4 (stereo partly shown) [Et 759B],>1 µg/mL,0.7 µg/mL,3.90 μg/disc,0.005 µg/mL,0.01 µg/mL,0.005 µg/mL,0.025 µg/mL,0.005 µg/mL,>1 µg/mL,0.5 µg/mL,
"COc1cc2c(cc1O)CCNC21CSC2c3c(OC(C)=O)c(C)c4c(c3C(COC1=O)N1C(C(C=O)C=O)C3Cc5cc(C)c(OC)c(O)c5C(C21)N3C)OCO4 (stereo not shown) [Et 815, Ecteinascidin 815]",,>1 µg/mL,0.75 μg/disc,0.0025 µg/mL,,0.005 µg/mL,0.005 µg/mL,0.005 µg/mL,,0.1 µg/mL,L1210 IC50 [6]: 0.025 µg/mL
"COc1cc2c(cc1O)CCNC21CSC2c3c(OC(C)=O)c(C)c4c(c3C(COC1=O)N1C(O)C3Cc5c(Br)c(C)c(OC)c(O)c5C(C21)N3C=O)OCO4 (stereo not shown) [N—CHO, 15-Br (18)]",,,,0.05 µg/mL,,0.2 µg/mL,0.25 µg/mL,0.2 µg/mL,,,
COc1cc2c(cc1O)CCNC21CSC2c3c(OC(C)=O)c(C)c4c(c3C(COC1=O)N1C(O)C3Cc5cc(C)c(OC)c(O)c5C(C21)N3C=O)OCO4 (stereo not shown) [N—CHO],4 µg/mL,,6.60 μg/disc,,,,,,,,
Ecteinascidin 596 [Et 596],,,,,,,,,,,"antimicrobial activity against B. subtilis (MIC) (Bacillus subtilis; crude sample, single major peak by FABMS): 0.3 μg/disc"
